Assay results taken from patent US12017975B2, “Myc-Max inhibitor compound therapeutics for cancer treatment, methods and uses associated therewith” (THE UNIVERSITY OF BRITISH COLUMBIA, priority 2018, dated 2024).
Residues, ends and D or L forms follow the SMILES beside them.

Tested on: Myc-Max transcriptional activity
Experiment: Cignal c-Myc luciferase reporter assay in LNCaP cells
Type: cell-based
Settings: Homo sapiens, LNCaP, 25 μM, TABLE 3; read-out: % Inhibition 25 μM
Experimental: Cell transfection was performed using TransIT-2020™ transfection reagents according to the manufacturer's instructions (Mirus™). LNCaP cells were plated at 10000 cells per well and treated for 1 day with the indicated concentration of compound. Myc reporter activity was measured using the Cignal Myc Reporter Assay Kit™ from Qiagen™ (#336841) according to the manufacturer's instructions. For the UBE2C reporter assay, 22rv1 cells were plated at 10000 cells per well in 96-well plates in RPMI media supplemented with 5% charcoal-stripped serum (CSS) and treated for 1 day with 1 μM, 10 μM and 25 μM of compound.
Compounds were subjected to experimental evaluation using the commercially available transcriptional assay Cignal c-Myc luciferase reporter assay in LNCaP cells. […] A transiently transfected Myc-driven luciferase reporter allowed the monitoring of Myc-regulated signal in LNCaP upon treatment with the in silico identified compounds.

Point of comparison: `CC[C@@H]1Oc2cc(S(=O)(=O)N(C)CC(=O)N(C)Cc3ccccc3)c(C)cc2NC1=O` [VPC-70381], inhibition at 25 µM 74%. Against it:
- COc1ccc2[nH]cc(CCNC(=O)CCc3nc(-c4ccccc4)no3)c2c1 [VPC-70277] — higher, 95%
- C[C@H](CCc1ccccc1)NC(=O)[C@H]1CCCN(C(=O)CCc2c[nH]c3ccccc23)C1 [VPC-70314] — higher, 93%
- O=C(CCN1C(=O)S/C(=C/C=C/c2ccccc2)C1=O)NCCc1c[nH]c2ccccc12 [VPC-70387] — higher, 82%
- O=C(CCN1C(=O)S/C(=C\c2ccccc2)C1=O)NCCc1c[nH]c2ccccc12 [VPC-70388] — higher, 77%
- Cc1cccc(-c2cc(C(=O)Nc3ccc(S(=O)(=O)N4CCCCC4)cc3)n[nH]2)c1O [VPC-70390] — higher, 97%
- Cc1c(CC(=O)NCC[C@@H](c2ccc(Cl)cc2)C(C)C)c(=O)oc2c(O)c(O)ccc12 [VPC-70393] — higher, 96%

Same assay, conditions: Homo sapiens, LNCaP, 25 μM, TABLE 4; read-out: % Inhibition (25 μM)

Work on `O=C1/C(=C/c2cccs2)SC(=S)N1c1cccc(O)c1` [VPC-70005] yielded an inhibition at 25 µM of 65%.

Same assay, conditions: Homo sapiens, LNCaP, 25 μM, TABLE 5; read-out: % Inhibition 25 μM

Point of comparison: `C[C@H](OC(=O)[C@@H]1CCCN1C(=O)C12CC3CC(CC(C3)C1)C2)C(=O)c1c[nH]c2ccccc12` [VPC-70360], inhibition at 25 µM 64%. Against it:
- CS(=O)(=O)Nc1ccccc1C(=O)OCc1cc(=O)oc2cc(O)ccc12 [VPC-70027] — lower, 53%
- O=C(CN1C(=O)NC2(CCCC2)C1=O)Nc1cccc(C(F)(F)F)c1 [VPC-70066] — higher, 65%
- O=C(CCc1csc(NC(=O)c2ccc(F)cc2)n1)NCCc1ccccc1 [VPC-70131] — lower, 50%
- O=C(CSCCO)Nc1ccc(C23CC4CC(CC(C4)C2)C3)cc1 [VPC-70146] — lower, 52%
- O=S(O)(=Nc1cccc2[nH]ccc12)C1CCc2n[nH]nc2C1 (centres unmarked) [VPC-70158] — lower, 41%
- Cc1ccc(Nc2ccccc2N=S(=O)(O)c2ccc(C(=O)O)cc2)cc1 [VPC-70163] — lower, 39%
- O=C(NCCCc1ccccc1)NC[C@](O)(c1ccccc1)C(F)(F)F [VPC-70205] — lower, 50%
- O=C(NCCc1c[nH]c2ccccc12)C(=O)Nc1ccc(F)cc1 [VPC-70209] — lower, 52%
- C[C@@H](NC(=O)OCc1ccccc1)C(=O)NCC(=O)Nc1ccc(F)c(F)c1 [VPC-70211] — lower, 47%
- Cc1c(NC(=O)[C@H](C)OC(=O)c2cccc(O)c2)c(=O)n(-c2ccccc2)n1C [VPC-70216] — lower, 40%
- O=C(NCCc1c[nH]c2ccccc12)c1coc2ccccc2c1=O [VPC-70219] — higher, 67%
- O=C(CNC(=O)NCc1ccc(F)cc1)NCc1ccc(OC(F)(F)F)cc1 [VPC-70222] — higher, 68%
- Cc1ccc(C(=O)NCC(=O)NCC(=O)Nc2ccc(F)c(F)c2F)cc1C [VPC-70236] — lower, 32%
- O=C(CCc1c[nH]c2ccccc12)NCc1noc(-c2ccccc2)n1 [VPC-70240] — lower, 48%
- C[C@@H](NC(=O)NC[C@@H](O)COc1cccc(F)c1)c1cccs1 [VPC-70247] — lower, 35%
- C[C@@H]1CCNC(=O)[C@H]1NC(=O)NCCCc1cccc(Cl)c1 [VPC-70249] — higher, 65%
- O=C(CNC(=O)C1CCCC1)NC[C@@H](O)COc1cccc2ccccc12 [VPC-70252] — lower, 45%
- C[C@@H]1CCCC[C@@H]1NC(=O)NCCCn1ccc2ccccc21 [VPC-70255] — lower, 40%
- C[C@@H](NC1=NS(=O)(=O)c2ccccc21)C(=O)NCCCSc1ccccc1 [VPC-70258] — lower, 34%
- C[C@@H](CCc1ccc(O)cc1)NC(=O)N[C@H]1CCOC2(CCCC2)C1 [VPC-70261] — lower, 35%
- O=C(NCCNc1ncccn1)NC[C@@H](O)c1cccc(Cl)c1 [VPC-70263] — lower, 32%
- O=C(NCCOc1cccc(Cl)c1)NCC[C@H](O)C(F)(F)F [VPC-70266] — lower, 38%
- Cc1nc(C(=O)NC[C@@H](O)COCc2ccccc2)c2ccccn12 [VPC-70267] — lower, 47%
- Cc1ccccc1OC[C@@H](O)C(=O)NCC1(O)C2CC3CC(C2)CC1C3 (some centres unmarked) [VPC-70283] — lower, 45%
- NC(=O)CC[C@H](NC(=O)C1(c2ccccc2)CCN(C(=O)[C@@H]2CCCN2)CC1)C(=O)O [VPC-70318] — lower, 54%
- NC(=O)c1ccc(NC(=O)COC(=O)[C@H](Cc2ccccc2)NC(=O)c2ccccc2)cc1 [VPC-70339] — lower, 50%
- COc1cccc(NC(=O)c2ccccc2N(C)C(=O)CCC(=O)NCc2ccccc2)c1 [VPC-70340] — lower, 49%
- COc1ccccc1CNC(=O)c1ccc(N=S(=O)(O)c2ccc([C@@H](C)O)cc2)cc1 [VPC-70341] — lower, 50%
- CC(=O)N1c2ccc(S(=O)(O)=Nc3ccc(C(=O)NCC(=O)O)cc3)cc2C[C@@H]1C [VPC-70343] — lower, 54%
- O=C(O)CCC1CCN(C(=O)c2ccc(S(=O)(=O)NCc3cccs3)cc2)CC1 [VPC-70344] — lower, 49%
- COc1ccccc1-c1noc(CNC(=O)N[C@H](Cc2c[nH]c3ccccc23)C(=O)O)n1 [VPC-70345] — lower, 51%
- O=C(CSc1nc2ccccc2c(=O)n1CCCO)NC(=O)Nc1ccccc1F [VPC-70355] — lower, 51%
- Cc1ccccc1C(=O)N[C@H](CC(C)C)C(=O)N1CCN(S(=O)(=O)c2nc[nH]n2)CC1 [VPC-70356] — lower, 53%
- Cc1ccc(C(=O)N(C)c2ccc(OCC(=O)NCc3ccc(C(=O)O)cc3)cc2)cc1 [VPC-70358] — lower, 48%
- COCCn1c(Cc2ccccc2)nnc1SCC(=O)c1ccc2c(c1)CCC(=O)N2 [VPC-70359] — lower, 41%
- CS(=O)(=O)NCCc1ccc(C(=O)NC[C@H](c2cccs2)c2c[nH]c3ccccc23)cc1 [VPC-70361] — lower, 61%
- C[C@H]1CC[C@H](C(N)=O)CN1C(=O)c1cccc(S(=O)(O)=Nc2cccc(Cl)c2)c1 [VPC-70366] — lower, 60%
- O=C1COc2ccc(S(=O)(=O)N3CCC(C(=O)NC4CCCCCC4)CC3)cc2N1 [VPC-70376] — lower, 55%
- Cc1ccsc1CCNC(=O)CCS(=O)(=O)c1cc2c(cc1Cl)NC(=O)CO2 [VPC-70377] — lower, 52%
- CCOCCOc1nc(-c2cccc(F)c2)n(-c2ccc(NC[C@H](O)COC)cc2)n1 [VPC-70379] — lower, 52%
- Cc1cc2c(cc1S(=O)(=O)N1CCN(C(=O)CCC3CCCC3)CC1)OCC(=O)N2 [VPC-70380] — higher, 68%
- Cc1cccc(CSc2nc(O)c3c(n2)NC(=O)C[C@H]3C(=O)Nc2cccc(F)c2)c1 [VPC-70384] — lower, 53%
- C[C@@H](NC(=O)OCc1ccccc1)C(=O)N[C@H](CCC(N)=O)C(=O)OCc1ccc([N+](=O)[O-])cc1 [VPC-70386] (HELM PEPTIDE1{[O=C(OCc1ccccc1)[*:2]].[dA].[dQ].[O=[N+]([O-])c1ccc(CO[*:1])cc1]}$$$$V2.0) — lower, 55%
- Cc1ccc(O)c(-c2cc(C(=O)Nc3ccc(S(=O)(=O)N4CCCCC4)cc3)n[nH]2)c1 [VPC-70389] — lower, 58%
- CS(=O)(=O)Nc1cccc(C2=NN(C(=O)CCC(=O)O)[C@H](c3ccccc3O)C2)c1 [VPC-70391] — lower, 54%
- CCn1c(CC(=O)Nc2cccc(C)c2)nnc1SCC(=O)Nc1cc(F)ccc1F [VPC-70392] — lower, 58%

Same assay, conditions: Homo sapiens, LNCaP, 24 h, 25 μM, LNCaP cells, TABLE 1; read-out: Myc-Max transcriptional activity % inhibition (25 μM)

Point of comparison: `O=C1/C(=C/c2cccs2)SC(=S)N1c1cccc(O)c1` [VPC-70005], inhibition at 25 µM 65%. Against it:
- CS(=O)(=O)Nc1ccccc1C(=O)OCc1cc(=O)oc2cc(O)ccc12 [VPC-70027] — lower, 53%
- O=C(CN1C(=O)NC2(CCCC2)C1=O)Nc1cccc(C(F)(F)F)c1 [VPC-70066] — the same, 65%

Same assay, conditions: Homo sapiens, LNCaP; TABLE 2; assay not named, values match Myc-Max transcriptional activity; read-out: IC50

Point of comparison: `Cc1cccc(-c2cc(C(=O)Nc3ccc(S(=O)(=O)N4CCCCC4)cc3)n[nH]2)c1O` [VPC-70390], IC50 9 µM. Against it:
- O=C1/C(=C/c2cccs2)SC(=S)N1c1cccc(O)c1 [VPC-70005] — higher, > 25 µM
- O=C(NCCc1c[nH]c2ccccc12)c1coc2ccccc2c1=O [VPC-70219] — higher, > 25 µM
- COc1ccc2[nH]cc(CCNC(=O)CCc3nc(-c4ccccc4)no3)c2c1 [VPC-70277] — higher, > 25 µM
- C[C@H](CCc1ccccc1)NC(=O)[C@H]1CCCN(C(=O)CCc2c[nH]c3ccccc23)C1 [VPC-70314] — 1.7-fold higher, 15 µM
- CC[C@@H]1Oc2cc(S(=O)(=O)N(C)CC(=O)N(C)Cc3ccccc3)c(C)cc2NC1=O [VPC-70381] — 2.2-fold higher, 20 µM
- O=C(CCN1C(=O)S/C(=C\c2ccccc2)C1=O)NCCc1c[nH]c2ccccc12 [VPC-70388] — 2.2-fold higher, 20 µM
